Assay results taken from patent publication US6479528B1, “Methods for inhibiting or reversing tau filament formation polymerization” (Neuronautics, Inc., priority 2001, dated 2002).
Where “and” joins values, the source holds several entries; their conditions need not be identical. Identical values can stand only once. Entries after “also recorded” stand apart in the source; their conditions may differ. Like-named read-outs stand apart in the source and are kept apart here. Values belong to the compound of their own block, whether it stands above or below them.

Columns and labels:
[1] = biological target: T1, recombinant human htau40 (Homo sapiens, UniProt P10636); assay: Thioflavin S fluorescence assay of arachidonic acid-induced tau polymerization; format: biochemical
T1 construct: synthetic straight filaments prepared from recombinant full-length tau; made in house
Procedure: (§1) Tau Polymerization. Purified isoforms of tau were polymerized as described previously (Wilson et al., Am. J. Pathol. 150: 2181 (1997); King et al., Biochemistry 38: 14851 (1999); King et al., J. Neurochem. 74: 1749 (2000)). Briefly, 2-8 mM (final concentration) htau40 or mutant htau40^C291A, C322A was incubated at room temperature in the presence or absence of 2-[[4-(dimethylamino)phenyl]azo]-6-methoxylbenzothiazole (compound I′) with polymerization buffer (10 mM 4-[2-hydroxyethyl]-1-piperazineethanesulfonic acid, 100 mM NaCl, and 5 mM DTT) containing 4 mM thioflavin S. Polymerization was induced by the addition of arachidonic acid (75-100 mM) and continued until analyzed by fluorescence or electron microscopy assays described below. When present, compound I′ final concentration varied from 0.05-2 mM. Control reactions were normalized for DMSO vehicle, which was limited to 5% in all reactions.
(§2) Fluorescence. Tau aggregation and disassembly were monitored by following thioflavin S fluorescence as described previously (King et al., 1999). Inhibitory activity of compound I′ was quantified by fitting the resultant data to the relationship
A=A0+(Amax−A0)/[1+10^(log IC50−logX)]
where A and A0 are blank-adjusted fluorescence in the presence and absence of inhibitor (at concentration X), respectively. IC50 values were calculated using the nonlinear regression algorithm of GRAPHPAD PRISM (GraphPad Software Inc.).
Inhibition of tau Polymerization. […] 31, 2000. 2-[[4-(Dimethylamino)phenyl]azo]-6-methoxylbenzothiazole (compound I′), an uncharged (at physiological pH) member of the azo dye family that includes Congo Red, was identified as having inhibitory activity against htau40.
The effect of compound I′ on polymerization of htau40 (2 mM) was quantified using a thioflavin S (2-4 mM) fluorescence assay (King et al., 1999).

[2] = biological target: Ab fibrils (Homo sapiens, UniProt P05067); details: cited from earlier work
[3] = system: Tau filaments isolated from AD brain; assay: Disassembly of authentic tau filaments, electron microscopy; format: biochemical, human; details: 2 mM compound; 20 min incubation; filaments 0.03 mg/ml
Procedure: The ability of compound I′ (2 mM) to depolymerize authentic filaments (0.033 mg/ml) was assayed as above except that timepoints were limited to 0, 10, and 20 min post addition.
Transmission Electron Microscopy. Aliquots (50 ml) of polymerization and depolymerization reactions were removed, fixed with glutaraldehyde (2%), and adsorbed (1 min) onto 300 mesh formvar/carbon-coated copper grids (Electron Microscopy Sciences; Ft. Washington, Pa.). The resultant grids were washed with water, stained (1 min) with 2% uranyl acetate (Electron Microscopy Sciences), washed again with water, blotted dry, and viewed in a Phillips CM 12 microscope operated at 65 kV. Four to six random images from each experimental condition were captured on film at either 13,000× or 22,000× magnification, digitized, calibrated, and imported into Optimas 6.5.1 for quantitation of filament length and number as described previously (King et al., 2000). Individual filaments defined as any object greater than 50 nm in its long axis were counted manually. Counts from each of the 4 to 6 random images per condition are reported as an average±standard deviation for both filament length and number. Length distributions were quantified in 100 nm-wide bins, beginning with 50-150 nm lengths and continuing 151-250 nm, 251-350 nm, etc.
Authentic PHF Disassembly. […]

[4] = Charge state at physiological pH; format: physicochemical
[5] = biological target: T2, synthetic tau filaments (htau40) (Homo sapiens, UniProt P10636); assay: Disassembly of preassembled synthetic tau filaments, dose response; format: biochemical; details: filaments assembled 3 hours; read-out: IC50, dose response on preassembled tau filaments (data not shown)
T2 construct: synthetic straight filaments prepared from recombinant full-length tau; made in house
Procedure: (§3) Tau Depolymerization. Solutions of purified htau40 or htau40^C291A, C322A (8 mM) were polymerized as described above for 3.5 hours. To assay dilution-mediated depolymerization, aliquots (50 ml) of reaction product were injected into a stirred quartz cuvette containing 1 ml of polymerization buffer with 4 mM thioflavin S and fluorescence decay followed as a function of time (room temperature). When present, arachidonic acid was 50 mM and tau was held at 2 mM.
To assay inhibitor-mediated depolymerization, compound I′ was added to polymerized tau to a final concentration of 0.2 mM into two separate microcentrifuge tubes. Aliquots were removed from each sample after 10, 20, 30, 45, 60 minutes incubation and subjected to fluorescence or electron microscopy assays described below. […]
as §2
To determine whether compound I′ also could destabilize mature filaments and mimic the depolymerization observed in dilution experiments, tau filaments assembled in the presence of thioflavin S for 3 hours under standard conditions were incubated in the presence or absence of compound I′ (200 nM) and examined after various times by electron microscopy and fluorescence.

[6] = biological target: T3, Aβ1-40 (Homo sapiens, UniProt P05067); assay: Aβ1-40 aggregation, turbidity at 350 nm; format: biochemical; details: 20 μM (20 mM in the source) compound, stoichiometric with Aβ
T3 construct: Stock solutions of Aβ1-40 (Bachem; Philadelphia, Pa.) were prepared in DMSO; purchased Bachem
Procedure: Aβ1-40 Aggregation. Stock solutions of Aβ (1 mM) were prepared in DMSO and filtered (0.2 mM cutoff). Aggregation was initiated by diluting the Aβb stock solution to 20 mM final concentration in aggregation buffer (150 mM NaCl, 10 mM 2-[N-morpholino]ethanesulfonic acid, pH 6.2; final volume 100 mL). Turbidity resulting from Aβ aggregation in the presence (20 mM final concentration) and absence of compound I′ was monitored as a function of time in a Beckman DU640B spectrophotometer at 350 nm versus a DMSO vehicle blank (Snyder et al., Biophys. J. 67: 1216 (1994); Evans et al., Proc. Natl. Acad. Sci. USA 92: 763 (1995)). Cuvettes were rapidly inverted before each reading.
Selectivity of tau Polymerization Antagonism. […] To determine whether amyloid binding was accompanied by polymerization inhibitory activity, the ability of compound I′ to inhibit spontaneous Aβ1-40 assembly was examined. In the absence of ligand, Aβ1-40 (20 mM) polymerized spontaneously after a lag of 1 hour (FIG. 6).

[7] = biological target: T4, htau40^C291A, C322A (Homo sapiens, UniProt P10636, C608A/C639A); assay: Electron microscopy assay of tau filament formation; format: biochemical; details: 200 nM compound (1:40 molar ratio relative to tau), 8 µM htau40^C291A
T4 construct: synthetic straight filaments prepared from recombinant full-length tau; made in house
Procedure: as §1, with “Control reactions were normalized for DMSO vehicle, which was limited to 5% in all reactions.” left out
Transmission Electron Microscopy. […] Four to six random images from each experimental condition were captured on film at either 13,000× or 22,000× magnification, digitized, calibrated, and imported into Optimas 6.5.1 for quantitation of filament length and number as described previously (King et al., 2000). Individual filaments defined as any object greater than 50 nm in its long axis were counted manually. […] Length distributions were quantified in 100 nm-wide bins, beginning with 50-150 nm lengths and continuing 151-250 nm, 251-350 nm, etc. […]

[8] = biological target: T5, htau40^C291A, C322A filaments (Homo sapiens, UniProt P10636, C608A/C639A); assay: Inhibitor-mediated depolymerization of preassembled synthetic tau filaments, electron microscopy time course; format: biochemical
T5 construct: synthetic straight filaments prepared from recombinant full-length tau; made in house
Procedure: as §3
To assay inhibitor-mediated depolymerization, compound I′ was added to polymerized tau to a final concentration of 0.2 mM into two separate microcentrifuge tubes. Aliquots were removed from each sample after 10, 20, 30, 45, 60 minutes incubation and subjected to fluorescence or electron microscopy assays described below. Control (no compound I′) reactions were normalized for DMSO vehicle, which was limited to 5% in all reactions.
Transmission Electron Microscopy. Aliquots (50 ml) of polymerization and depolymerization reactions were removed, fixed with glutaraldehyde (2%), and adsorbed (1 min) onto 300 mesh formvar/carbon-coated copper grids (Electron Microscopy Sciences; Ft. Washington, Pa.). […] Four to six random images from each experimental condition were captured on film at either 13,000× or 22,000× magnification, digitized, calibrated, and imported into Optimas 6.5.1 for quantitation of filament length and number as described previously (King et al., 2000). Individual filaments defined as any object greater than 50 nm in its long axis were counted manually. […] Length distributions were quantified in 100 nm-wide bins, beginning with 50-150 nm lengths and continuing 151-250 nm, 251-350 nm, etc.
To determine whether compound I′-mediated tau depolymerization proceeded by an endwise mechanism, htau40^C291A, C322A (4 mM) was polymerized over a 3.5 hour period after which time compound I′ (200 nM) or DMSO vehicle alone was added and filament lengths were measured over a 1 hour “chase” by electron microscopy. […]

[9] = approximate values given in the description, read-out: IC50, arachidonic acid polymerization of full length tau protein
[10] = after 1 hour incubation with 200 nM compound

T1 sequence (P10636 1-441 isoform P10636-8): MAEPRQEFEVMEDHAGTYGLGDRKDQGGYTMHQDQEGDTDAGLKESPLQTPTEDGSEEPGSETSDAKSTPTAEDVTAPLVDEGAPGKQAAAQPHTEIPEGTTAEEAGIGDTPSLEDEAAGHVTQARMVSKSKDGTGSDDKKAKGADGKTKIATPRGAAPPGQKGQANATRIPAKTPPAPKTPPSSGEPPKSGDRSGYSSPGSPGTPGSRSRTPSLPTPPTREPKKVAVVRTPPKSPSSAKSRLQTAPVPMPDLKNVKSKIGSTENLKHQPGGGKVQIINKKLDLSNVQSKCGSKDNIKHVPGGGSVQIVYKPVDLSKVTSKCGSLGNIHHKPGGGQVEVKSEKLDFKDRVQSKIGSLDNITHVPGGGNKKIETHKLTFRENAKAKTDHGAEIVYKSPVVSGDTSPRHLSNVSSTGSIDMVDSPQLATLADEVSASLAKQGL
T5 sequence (P10636 1-441 isoform P10636-8 C291A/C322A): as the sequence (P10636 1-441 isoform P10636-8) above, with C291A, C322A counted along it
T3 sequence (P05067 672-711 limits assumed): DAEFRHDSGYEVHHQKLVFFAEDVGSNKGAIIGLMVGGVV
T4 sequence (P10636 1-441 isoform P10636-8 C291A/C322A): as the sequence (P10636 1-441 isoform P10636-8) above, with C291A, C322A counted along it
T2 sequence (P10636 1-441 isoform P10636-8): as the sequence (P10636 1-441 isoform P10636-8) above
Chain of Ab fibrils (P05067 672-713 limits assumed): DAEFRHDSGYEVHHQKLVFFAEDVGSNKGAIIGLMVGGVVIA

IC50 [1, 9]: ~0.06 µM
Compound: CCN(CCO)c1ccc(N=Nc2nc3ccc(OC)cc3s2)cc1 [2-[[4-(N-ethyl-N-β-hydroxyethylamino)phenyl]azo]-6-methoxybenzothiazole]

IC50 [1, 9]: ~0.06 µM
Compound: CCN(CC)c1ccc(N=Nc2nc3ccc(OC)cc3s2)cc1 [2-[[4-(didethylamino)phenyl]azo]-6-methoxybenzothiazole]

IC50 [1, 9]: ~0.04 µM
Compound: CCC(=Cc1sc2ccc(OC)cc2[n+]1CCO)C=C1Sc2ccc(OC)cc2N1CCO [3-(2-hydroxy-ethyl)-2-{2-[3-(2-hydroxyl-ethyl)-5-methoxy-3H-benzothiazol-2-ylidenemethyl]-but-1-enyl}-5-methoxy-benzothiazol-3-ium]

Compound: Cc1ccc(N=Nc2ccc(-c3ccc(N=Nc4ccc(C)c(C(=O)O)c4O)cc3)cc2)c(O)c1C(=O)O [3-[4′-(3-carboxy-2-hydroxy4-methyl-cyclohexa-1,5-dienylazo)-biphenyl-4-ylazo]-2-hydroxy-6-methyl benzoic acid]
IC50 [1, 9]: ~0.4 µM

IC50 [1, 9]: ~0.7 µM
Compound: Cc1cc(N=Nc2c(O)ccc3ccccc23)c(CCCC(=O)O)s1 [4-[3-(2-hydroxy-naphthalen-1-ylazo)-5-methyl-thiophen-2-yl]-butyric acid]

IC50 [1, 9]: ~0.6 µM
Compound: O=C1Nc2ccccc2/C1=N/NC(=O)c1cc2ccccc2cc1O [Compound III, 3-hydroxy-napthalene-2-carboxylic acid (2-oxo-1,2-dihydro-indol-3-ylidene)-hydrazide]

Compound: Nc1ccc(-c2nc3ccc(-c4nc5ccc(N)cc5[nH]4)cc3[nH]2)cc1 [Ro 90-7501]
effect on Ab fibrils [2]: inhibit polymerization and promote disaggregation

IC50 [1, 9]: ~0.06 µM
Compound: COc1ccc2nc(N=Nc3ccc(N(C)c4ccccc4)cc3)sc2c1 [[4-(6-methoxy-benzothiazol-2-ylazo)phenyl]-methylphenyl amine]

IC50 as % of the molar concentration of arachidonic acid [1]: < 0.1% | IC50 [1, 9]: < 0.1 µM and ~0.06 µM | IC50 ([1]; arachidonic acid-induced, 3.5 h, room temperature, % of DMSO vehicle control fluorescence, read-out: IC50, inhibition of htau40 polymerization (thioflavin S fluorescence)): 0.054 ± 0.006 µM | charge at physiological pH [4]: uncharged | IC50 [5]: 0.091 ± 0.013 µM | total filament number, % of control at 0.2 µM [7]: 14.2 ± 0.6% | total filament number, % of control values [7]: 10-20% | initial first order rate of decrease of total filament length per field ([8]; 200 nM compound added to filaments polymerized 3.5 h): 0.042 min⁻¹ | total filament length, % of vehicle only controls [8, 10]: 21±6% | total filament number, % of vehicle only controls [8, 10]: 84±26%
Compound: COc1ccc2nc(/N=N/c3ccc(N(C)C)cc3)sc2c1 [compound I′, 2-[[4-(dimethylamino)phenyl]azo]-6-methoxylbenzothiazole]
total filament length, % of DMSO vehicle control [3]: 14±9% and 10-50% | effect on Aβ1-40 polymerization / assembly kinetics [6]: did not inhibit Aβ polymerization; also recorded: does not interfere with Aβ1-40 assembly; also recorded: did not alter Aβ1-40 assembly kinetics significantly

Compound: thioflavin S [reference compound]
effect on tau polymerization at the concentration required for filament binding ([1]; concentration about EC50 of binding): not sufficient to inhibit or reverse tau polymerization
